Key:
Format in all cases: in vivo
[1] = tested on: Green Leafhopper (Nephotettix sp.); assay: Green leafhopper foliar spray assay on rice
Procedure: (§1) A foliar spray assay and a root-uptake systemic assay were performed on both brown planthopper and green leafhopper. Four-week-old rice seedlings were submerged in 3-cm depth of water in the bottom portion (high 5 cm, diameter 3 cm) of a 2-part glass cylinder (high 18 cm, diameter 3 cm). A metal screen was used to hold the seedlings within the bottom portion. Scotch tape was used to bind the two portions of the cylinder after setting up the seedlings. A metal cap was used to cover the cylinder. There were 4 cylinders for each treatment. The test compound was dissolved in acetone to make a 10,000 ppm stock solution. For the foliar spray assay, this stock solution was diluted with water to make 10, 2.5, 0.31, 0.08 and 0.02 ppm test solutions. A volume of 0.5 ml of a test solution or solvent blank as check was sprayed into the glass cylinder. For systemic test, the stock solution was incorporated at final test concentrations of 10, 2.5, 0.31, 0.08 and 0.02 ppm in the water in which rice seedlings were submerged. In both foliar spray and systemic tests, five laboratory-reared 3rd instar nymphs of brown planthopper or green leafhopper were introduced into each cylinder 3 hr after insecticide application. The treated test units were kept in a growth chamber with conditions set as followings: Temperature 28±0.5° C.; Relative humidity 70±0.5%; Photoperiod […].

[2] = tested on: Green Leafhopper (Nephotettix sp.); assay: Green leafhopper root-uptake systemic assay on rice
Procedure: as §1

[3] = tested on: Green Peach Aphid (Myzus persicae); assay: Green peach aphid foliar spray assay on cabbage; details: 72 h, read-out: % Control at ppm, foliar spray, green peach aphid on cabbage
Procedure: Cabbage seedlings grown in 3-inch pots, with 2-3 small (3-5 cm) true leaves, were used as test substrate. The seedlings were infested with 20-50 green peach aphids (wingless adult and nymph) 2-3 days prior to chemical application. Four seedlings were used for each treatment. Compounds (2 mg) were dissolved in 2 ml of acetone:methanol (1:1) solvent, forming stock solutions of 1000 ppm. The stock solutions were then diluted with a diluent consisting 80 parts of 0.025% Tween 20 in […] and 20 parts of acetone:methanol (1:1). A hand-held Devilbiss sprayer was used for spraying the test solutions to both sides of cabbage leaves until runoff. Reference plants (solvent check) were sprayed with the diluent only. Treated plants were held in a holding room for three days at approximately 23° C. and 40% RH prior to grading. Evaluation was conducted by counting the number of live aphids per plant under a microscope. Insecticidal activity was measured by using Abbott's correction formula: Corrected % Control=100*(X−Y)/X • where X=No. of live aphids on solvent check plants • Y=No. of live aphids on treated plants The Corrected % Control values from assays are given in Table 2.

[4] = tested on: Cat Flea (Ctenocephalides felis); assay: Cat flea filter wool assay; details: 48-hour observation
Procedure: Compound 2 was evaluated in a dose response series to establish the range of activity of the test compound. Technical material was dissolved in acetone and diluted with the same solvent to obtain the test concentrations. Bioassays were conducted by treating polyester aquarium filter wool with 1.0 ml of the test solution, thoroughly saturating the substrate and allowing it to dry for at least 1 hour. The dry filter wool was then placed into 10 cm plastic Petri dishes and covered with the lid. Each treatment was replicated 5 times. Approximately 15 unfed cat flea adults were placed into each replicate of each dosage being evaluated. Mortality was assessed at 2, 8, 24 and 48 hours after introduction of the fleas into the test system. The mean percent mortality for each dosage group and time interval was determined and results from the 48-hour observation are presented in Table 9.

[5] = tested on: Sweet Potato Whitefly (Bemisia tabaci); assay: Sweet potato whitefly foliar spray assay on cotton; details: 12 days, live large nymphs
Source text: This test was designed to measure the capability of whitefly eggs and/or young nymphs to develop to large nymphs. Cotton seedlings at the growth stage of one or two expanding true leaf were trimmed so that only the first true leaf remained (cotyledon leaves were also removed). The plants were pre-infested with sweet potato whitefly eggs by keeping plants next to the colony-keeping plants for two days. The infested plants were carefully checked for presence of similar egg density before use in the insecticidal tests. Master solutions of test compounds at 1000 ppm were prepared in acetone:methanol (1:1). The 12.5 ppm spray solutions were then made by diluting 0.188 mL of the master solution with 14.812 ml of 0.025% Tween 20 in water. The lower concentrations were made by diluting the 12.5 ppm spray solution with a diluent consisting 98.75 parts of 0.025% Tween 20 in water and 1.25 parts of acetone:methanol (1:1). The diluent was used as solvent control. The test solutions were sprayed with a hand-held Devilbiss sprayer until runoff to both sides of the infested cotton leaves. Four plants (4 replications) were used for each treatment. Treated plants were held in a holding room for 12 days at approximately 23° C. and 40% RH before evaluation. To evaluate the efficacy of the compounds, the number of live large nymphs in an area of 1 square inch on the lower surface of the treated cotton leaves was counted under a microscope. Insecticidal activity was determined by Corrected % Control using Abbott's correction formula and presented in Table 5: Corrected % Control=100*(X−Y)/X • where X=No. of live large nymphs on solvent check plants • Y=No. of live large nymphs on treated plants

[6] = tested on: Brown Dog Tick (Rhipicephalus sanguineus); assay: Brown dog tick glass plate assay; details: 48-hour observation
Procedure: Compound 2 was evaluated in a dose response series to establish the range of activity of the test compound. Technical material was dissolved in acetone and diluted with the same solvent to obtain the test concentrations. Tick bioassays were conducted by applying 1.0 ml of the test substance to clean dry glass plates confined by 10 cm grease pencil circles drawn on the plates and spread evenly with an acid brush. The plates were allowed to dry for at least 1 hour before adult ticks were confined to the treated substrate using 10 cm Petri dish lids. Each treatment was replicated 5 times. Approximately 5 adult ticks were placed into each replicate. Mortality was assessed at 2, 8, 24 and 48 hours after introduction of the ticks into the test system. The mean percent mortality for each dosage group and time interval was determined and results from the 48-hour observation are presented in Table 10.

CC(c1ccc(C(F)(F)F)nc1)S(C)(=O)=NC#N (stereo not shown) [Compound 2, [1-(6-trifluoromethylpyridin-3-yl)ethyl](methyl)-oxido-λ^4-sulfanylidenecyanamide]
% Control at ppm against green leafhopper ([1]; 0.02 ppm): D (60-69) | % Control at ppm against green leafhopper ([1]; 0.08 ppm): A (90-100) | % Control at ppm against green leafhopper ([1]; 0.31 ppm): A (90-100) | % Control at ppm against green leafhopper ([1]; 2.5 ppm): A (90-100) | % Control at ppm against green leafhopper ([1]; 10 ppm): A (90-100) | % Control at ppm against green leafhopper ([2]; 0.02 ppm in water): D (60-69) | % Control at ppm against green leafhopper ([2]; 0.08 ppm in water): B (80-89) | % Control at ppm against green leafhopper ([2]; 0.31 ppm in water): A (90-100) | % Control at ppm against green leafhopper ([2]; 2.5 ppm in water): A (90-100) | % Control at ppm against green leafhopper ([2]; 10 ppm in water): A (90-100) | pest or weed control at 0.195 ppm [3]: 80 to 89% | pest or weed control at 0.781 ppm [3]: 90 to 100% | pest or weed control at 3.125 ppm [3]: 90 to 100% | mortality at 5 ppm ([4]; 5 ppm): 18% | mortality at 50 ppm ([4]; 50 ppm): 25% | mortality at 500 ppm ([4]; 500 ppm): 40% | mortality at 5000 ppm ([4]; 5,000 ppm): 57% | % Control at ppm, foliar spray, sweet potato whitefly on cotton ([5]; 0.781 ppm): 80% | % Control at ppm, foliar spray, sweet potato whitefly on cotton ([5]; 3.125 ppm): 94% | % Control at ppm, foliar spray, sweet potato whitefly on cotton ([5]; 12.500 ppm): 100% | mortality at 50 ppm ([6]; 50 ppm): 28% | mortality at 500 ppm ([6]; 500 ppm): 61%

— patent publication US8193364B2, “Insecticidal N-substituted (6-haloalkylpyridin-3-yl)-alkyl sulfoximines” (Dow AgroSciences, LLC., priority 2006, dated 2012)
